From patent publication US6969702B2, “Compounds and methods for increasing neurogenesis” (priority 2002, dated 2005)
Where two headings read alike, the source gives them in different places. Marks after values point to notes of the source that are not given here. Bridge positions count the residues as written; N and C are the ends. Square brackets hold non-standard residues; d marks the D form. Peptide text beside a SMILES is read from it. pGlu = O=C1CC[C@@H](C(=O)O)N1

Experiments:
[1] = test system: NFAT-Luciferace reporter (Ca^2+); details: Table 4; for NFAT Luciferace units: 24 hours after induction; for Fold Induction NFAT: vs vehicle
[2] = test system: mouse adult neural stem cells; experiment: ATP-assay: proliferation (ATP levels) of neurosphere-derived cells; details: for Fold Induction ATP: vs vehicle
[3] = test system: cAMP activation in mouse adult neural stem cells; experiment: cAMP detection (HitHunter EFC Cyclic AMP Chemiluminescence Assay); details: Table 2
Adult neural stem cells = experiment: Flow cytometry for early neuronal marker Doublecortin; details: Table 6, 100 nM
[4] = Table 4, concentration not given

CC[C@H](C)[C@H](NC(=O)[C@@H](NC(=O)[C@H](CC(=O)O)NC(=O)[C@H](CCC(N)=O)NC(=O)[C@H](Cc1c[nH]cn1)NC(=O)[C@@H]1CSSC[C@H](N)C(=O)N[C@@H](CO)C(=O)N[C@H]2CSSC[C@H](NC(=O)[C@H](CCC(=O)O)NC(=O)[C@H](CCCCN)NC(=O)[C@H](CC(=O)O)NC(=O)[C@H]([C@@H](C)O)NC(=O)[C@H](CCSC)NC(=O)[C@H](CC(=O)O)NC(=O)[C@H](CCCCN)NC2=O)C(=O)N[C@@H](CC(C)C)C(=O)N[C@@H](Cc2ccc(O)cc2)C(=O)N[C@@H](Cc2ccccc2)C(=O)N1)C(C)C)C(=O)N[C@@H](Cc1c[nH]c2ccccc12)C(=O)O [Sarafotoxin S6b] (H-CSCKDMTDKECLYFCHQDVIW-OH; disulfide 1-15, 3-11 (inferred); N-terminus and C-terminus assumed)
NFAT Luciferace units ([1]; 100 nM): 13.4 ± 7.0 Luciferace units | ATP (nM ATP/well) ([2]; Table 2, 100 nM, 4 days): 43.0 ± 7.8 nM ATP/well | ATP (nM ATP/well) ([2]; Table 4, 100 nM): 43.0 ± 7.8 nM ATP/well | cAMP (pmol/well) ([3]; 100 nM (cAMP concentration)): 0.43 ± 0.22 pmol/well

CC[C@H](C)[C@H](NC(=O)[C@H](Cc1ccc(O)cc1)NC(=O)[C@@H](NC(=O)[C@H](CCCNC(=N)N)NC(=O)[C@@H](N)CC(=O)O)C(C)C)C(=O)N[C@@H](Cc1cnc[nH]1)C(=O)N1CCC[C@H]1C(=O)N[C@@H](Cc1ccccc1)C(=O)O [Angiotensin II (human synthetic)]
% Doublecortin-positive cells (Adult neural stem cells; 4 days): 3.1% | Fold Induction (Doublecortin-positive cells) (Adult neural stem cells; vs EGF/FGF): 1.2 fold | NFAT Luciferace units ([1]; concentration not given): 12.0 ± 3.7 Luciferace units | Fold Induction NFAT ([1]; concentration not given): 2.1* fold | ATP (nM ATP/well) [2, 4]: 11.7 ± 0.6 nM ATP/well | Fold Induction ATP [2, 4]: 1.2* fold

CSCC[C@H](NC(=O)[C@H](C)NC(=O)[C@@H]1CCCN1C(=O)[C@H](CC(N)=O)NC(=O)[C@H](CO)NC(=O)[C@H](CC(N)=O)NC(=O)[C@H](C)NC(=O)[C@@H](N)CO)C(=O)N[C@@H](C)C(=O)N1CCC[C@H]1C(=O)N[C@@H](CCCNC(=N)N)C(=O)N[C@@H](CCC(=O)O)C(=O)N[C@@H](CCCNC(=N)N)C(=O)N[C@@H](CCCCN)C(=O)N[C@@H](C)C(=O)NCC(=O)N[C@H]1CSSC[C@@H](C(=O)O)NC(=O)[C@H](CO)NC(=O)[C@H]([C@@H](C)O)NC(=O)[C@H](Cc2ccccc2)NC(=O)[C@H]([C@@H](C)O)NC(=O)[C@H](CCCCN)NC(=O)[C@H](Cc2c[nH]c3ccccc23)NC(=O)[C@H](Cc2ccccc2)NC(=O)[C@H](Cc2ccccc2)NC(=O)[C@H](CC(N)=O)NC(=O)[C@H](CCCCN)NC1=O [Somatostatin-28]
NFAT Luciferace units ([1]; 100 nM): 3.0 ± 0.4 Luciferace units | Fold Induction NFAT ([1]; 100 nM): 1.6* fold | ATP (nM ATP/well) ([2]; Table 4, 10 nM): 17.1 ± 1.5 nM ATP/well | Fold Induction ATP ([2]; Table 4, 10 nM): 1.2* fold

CSCC[C@H](NC(=O)[C@H](CC(C)C)NC(=O)[C@@H]1CCCN1C(=O)[C@H](Cc1ccccc1)NC(=O)[C@H](Cc1ccccc1)NC(=O)[C@@H]1CCC(=O)N1)C(N)=O [Septide] ([pGlu]FFPLM-NH2; C-terminus assumed)
NFAT Luciferace units ([1]; 100 nM): 3.7 ± 0.9 Luciferace units | ATP (nM ATP/well) ([2]; Table 4, 100 nM): 25.1 ± 3.1 nM ATP/well

CC[C@H](C)[C@H](NC(=O)[C@H](C)NC(=O)[C@H](CC(=O)O)NC(=O)[C@H](C)NC(=O)[C@@H](N)Cc1ccc(O)cc1)C(=O)N[C@@H](Cc1ccccc1)C(=O)N[C@H](C(=O)N[C@@H](CC(N)=O)C(=O)N[C@@H](CO)C(=O)N[C@@H](Cc1ccc(O)cc1)C(=O)N[C@@H](CCCNC(=N)N)C(=O)N[C@@H](CCCCN)C(=O)N[C@H](C(=O)N[C@@H](CC(C)C)C(=O)NCC(=O)N[C@@H](CCC(N)=O)C(=O)N[C@@H](CC(C)C)C(=O)N[C@@H](CO)C(=O)N[C@@H](C)C(=O)N[C@@H](CCCNC(=N)N)C(=O)N[C@@H](CCCCN)C(=O)N[C@@H](CC(C)C)C(=O)N[C@@H](CC(C)C)C(=O)N[C@@H](CCC(N)=O)C(=O)N[C@@H](CC(=O)O)C(=O)N[C@H](C(=O)N[C@@H](CCSC)C(=O)N[C@@H](CO)C(=O)N[C@@H](CCCNC(=N)N)C(=O)N[C@@H](CCC(N)=O)C(=O)N[C@@H](CCC(N)=O)C(=O)NCC(=O)N[C@@H](CCC(=O)O)C(=O)N[C@@H](CO)C(=O)N[C@@H](CC(N)=O)C(=O)N[C@@H](CCC(N)=O)C(=O)N[C@@H](CCC(=O)O)C(=O)N[C@@H](CCCNC(=N)N)C(=O)NCC(=O)N[C@@H](C)C(=O)N[C@@H](CCCNC(=N)N)C(=O)N[C@@H](C)C(=O)N[C@@H](CCCNC(=N)N)C(=O)N[C@@H](CC(C)C)C(N)=O)[C@@H](C)CC)C(C)C)[C@@H](C)O [Growth Hormone Releasing Factor]
NFAT Luciferace units ([1]; 15 nM): 4.5 ± 0.6 Luciferace units | ATP (nM ATP/well) ([2]; Table 4, 10 nM): 12.6 ± 0.9 nM ATP/well

CC[C@H](C)[C@H](NC(=O)[C@@H](NC(=O)[C@H](CC(=O)O)NC(=O)[C@H](CCC(N)=O)NC(=O)[C@H](Cc1c[nH]cn1)NC(=O)[C@@H]1CSSC[C@H](N)C(=O)N[C@@H]([C@@H](C)O)C(=O)N[C@H]2CSSC[C@H](NC(=O)[C@H](CCC(=O)O)NC(=O)[C@H](CCC(=O)O)NC(=O)[C@H](CC(=O)O)NC(=O)[C@H]([C@@H](C)O)NC(=O)[C@H](CCSC)NC(=O)[C@H](CC(=O)O)NC(=O)[C@H](CC(N)=O)NC2=O)C(=O)N[C@@H](CC(C)C)C(=O)N[C@@H](CC(N)=O)C(=O)N[C@@H](Cc2ccccc2)C(=O)N1)C(C)C)C(=O)N[C@@H](Cc1c[nH]c2ccccc12)C(=O)O [Sarafotoxin S6c]
NFAT Luciferace units ([1]; 1 nM): 8.3 ± 2.0 Luciferace units | ATP (nM ATP/well) ([2]; Table 2, 10 nM, 4 days): 39.9 ± 6.6 nM ATP/well | ATP (nM ATP/well) ([2]; Table 4, 1 nM): 41.6 ± 4.8 nM ATP/well | cAMP (pmol/well) ([3]; 10 nM (cAMP concentration)): 0.21 ± 0.03 pmol/well

CC(C)C[C@H](NC(=O)CNC(=O)[C@H](C)NC(=O)[C@H](CC(C)C)NC(=O)[C@H](CCCNC(=N)N)NC(=O)[C@H](Cc1cnc[nH]1)NC(=O)[C@@H](NC(=O)[C@@H](N)C(C)C)[C@@H](C)O)C(=O)N[C@@H](CC(C)C)C(=O)N[C@@H](CO)C(=O)N[C@@H](CCCNC(=N)N)C(=O)N[C@@H](CO)C(=O)NCC(=O)NCC(=O)N[C@H](C(=O)N[C@H](C(=O)N[C@@H](CCCCN)C(=O)N[C@@H](CC(N)=O)C(=O)N[C@@H](CC(N)=O)C(=O)N[C@@H](Cc1ccccc1)C(=O)N[C@H](C(=O)N1CCC[C@H]1C(=O)N[C@H](C(=O)N[C@@H](CC(N)=O)C(=O)N[C@H](C(=O)NCC(=O)N[C@@H](CO)C(=O)N[C@@H](CCCCN)C(=O)N[C@@H](C)C(=O)N[C@@H](Cc1ccccc1)C(N)=O)C(C)C)[C@@H](C)O)C(C)C)C(C)C)C(C)C [CGRP (8-37)]
Fold Induction NFAT ([1]; 15 nM): 1.3** fold | Fold Induction ATP ([2]; Table 4, 100 nM): 1.2** fold
